Data on three compounds can be found in patent US9987336B2, “Attenuating or treating sepsis or septic shock” (Rutgers, the State University of New Jersey, priority 2012, dated 2018).

For experiment [1], the system named is TNF-α. Put plainly: TNF-α level after CLP (ELISA). Format: in vivo, mouse. The conditions noted are these: C57BL/6J mice, 16 hours post-CLP, vs. vehicle. How it is done: (§1) CD39 knockout (KO) mice and their wild-type littermates were developed according to established methods and were backcrossed 6-8 times to a C57BL/6J background (Enjyoji, et al. (1999) Nat. Med. 5(9):1010-7). Wild-type and KO littermates were used in this analysis. In some experiments, mice were treated with sodium polyoxotungstate (POM-1, Na6[H2W12O40], 3 mg/kg/h, […], prior to CLP) or apyrase from potatoes (Sigma, 5 U apyrase i.p., prior to CLP).
(§2) Polymicrobial sepsis was induced by subjecting C57BL/6J mice to CLP in accordance with established methods (Németh, et al. (2006) supra; Gallos, et al. (2005) supra; Lee, et al. (2006) supra; Csóka, et al. (2010) supra). After the operation, all mice were resuscitated with 1 ml physiological saline injected s.c. and returned to their cages with free access to food and water.
(§3) Sixteen hours after the CLP operation (the following day), the mice were reanesthetized with pentobarbital (50 mg/kg i.p.), and blood and peritoneal lavage fluid were harvested. Specifically, after opening the chest of mice, blood samples were obtained aseptically by cardiac puncture using heparinized syringes. […]
(§4) Concentrations of TNF-α and MIP-2 were determined in blood and peritoneal lavage fluid obtained 16 hours after CLP using commercially available ELISA kits (R&D Systems, Minneapolis, Minn.) according to the manufacturer's instructions.
(In an ELISA, binding on a coated surface is turned into a signal by an enzyme label.)

Experiment [2] has as its system MIP-2. In words: MIP-2 level after CLP (ELISA). To be noted: C57BL/6J mice, 16 hours post-CLP, vs. vehicle. Format: in vivo, mouse. As for the experimental part:
as §1, §2, §3, §4

Experiment [3] deals with C57BL/6J mice made septic by cecal ligation and puncture (CLP). In words: Survival after sepsis induced by cecal ligation and puncture (CLP). Format: in vivo, mouse. The conditions noted are these: murine model of septic shock induced by cecal ligation and puncture. How it is done:
In this analysis, CD39 KO mice, mice administered a CD39 blocker (sodium polyoxotungstate) or mice administered an apyrase (potato apyrase) were made septic by cecal ligation and puncture (CLP) and survival after CLP was recorded for 7 days. In addition, the immune status of the mice was assessed by measuring cytokine levels from blood and peritoneal lavage fluid. […] Thus, ectonucleotidase manipulation is therapeutically useful for the treatment of septic shock.
as §1, §2

Experiment [4] deals with adenosine receptors. To be noted: CD73 KO mice made septic by CLP; compared with wild-type mice; cited from earlier work.

“Also recorded” adds a separate entry of the source.

For the compound “sodium polyoxotungstate [reference compound]”, in experiment [1], the TNF-α levels entry is reported as “increased the levels”. Moreover, the MIP-2 levels entry in experiment [2] was “increased the levels”.
With apyrase, in experiment [1], the TNF-α levels result is “decreases plasma cytokine levels; also recorded: decreased the levels”. Moreover, the organ dysfunction result in experiment [3] is on record as “prevents organ dysfunction”. In experiment [2], the MIP-2 levels result was “decreases plasma cytokine levels; also recorded: decreased the levels”.
As for `CCNC(=O)[C@H]1O[C@@H](n2cnc3c(N)ncnc32)[C@H](O)[C@@H]1O` [NECA, 5′-(N-ethylcarboxamido)adenosine], the inflammatory cytokine levels result in experiment [4] was “completely reversed the increased cytokine levels”.
